From patent US11286268B1, “EIF4E-inhibiting compounds and methods” (EFFECTOR THERAPEUTICS, INC., priority 2019, dated 2022)
Where two headings read alike, the source gives them in different places.

Target: recombinant eIF4E (Homo sapiens (Human), UniProt P06730)
Test: Fluorescence polarization competition assay for eIF4E binding potency
How it was run: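 FP readout; IC50 fit from 8-point, 3-fold series. 75 nM eIF4E + 20 nM ATTO-550-labelled m7GDP probe, Tris pH 7.5/NaCl/DTT/Tween buffer, 1% DMSO final. 30 min RT equilibration, light-protected.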

[1] = fluorescence polarization competition, 75 nM recombinant eIF4E, 20 nM EDA-m7GDP-ATTO-550, IC50 class, read-out: elF4E FP
[2] = inhibition of eIF4E/EDA-m7GDP-ATTO-550 binding by 50%, Table 4B calculated values, read-out: IC50
[3] = inhibition of eIF4E/EDA-m7GDP-ATTO-550 binding, calculated IC50 values, Table 4B, read-out: IC50

Chain of recombinant eIF4E (P06730 whole entry): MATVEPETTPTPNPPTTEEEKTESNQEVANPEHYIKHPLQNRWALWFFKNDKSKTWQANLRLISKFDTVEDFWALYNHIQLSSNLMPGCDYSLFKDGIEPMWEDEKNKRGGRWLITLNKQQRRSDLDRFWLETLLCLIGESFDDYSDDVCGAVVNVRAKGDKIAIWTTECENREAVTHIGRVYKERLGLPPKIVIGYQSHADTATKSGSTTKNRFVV

| Structure (SMILES) | IC50 [1] [nM] | IC50 [2] [nM] | IC50 [3] [nM] |
| --- | --- | --- | --- |
| O=C(O)c1cccc(-c2cc(Cl)ccc2OCCc2cnc(C(F)F)c3nc(Nc4ccccc4)[nH]c(=O)c23)c1 [compound 173] | 50 to 1000 | 141 | – |
| Cc1nc2c(C3CCC(F)(F)CC3)ncc(C#N)c2c(=O)n1CCOc1ccc(Cl)cc1-c1ccnc2c(C(=O)O)csc12 [compound 284] | < 50 | 19.6 | – |
| Cc1c(CC2CCOCC2)nc(C#N)c2nc(C)n(CC#Cc3ccc(Cl)cc3-c3ccnc4c(C(=O)O)csc34)c(=O)c12 [compound 1965] | – | – | 86.4 |
| Cc1nc2cc(F)c(C#N)c(C#N)c2c(=O)n1CCOc1ccc(Cl)cc1-c1ccnc2c(C(=O)O)csc12 [compound 276] | < 50 | 22.8 | – |
| Cc1cc(-c2cc(Cl)ccc2OCCn2c(C)nc3cc(C(F)F)c(N4CC(F)(F)C4)c(C#N)c3c2=O)c2scc(C(=O)O)c2n1 [compound 799] | < 50 | 9.35 | – |
| Cc1nc2cc(C(F)(F)F)c(N3CCN(CCC(F)(F)F)CC3)c(C#N)c2c(=O)n1CCOc1ccc(Cl)cc1-c1ccnc2c(C(=O)O)csc12 [compound 1293] | – | – | 35.1 |
| O=C(O)c1cccc(-c2cc(Cl)ccc2OCCn2ccc3cccnc3c2=O)c1 [compound 7] | > 1000 | 12000 | – |
| Cc1cc(-c2cc(Cl)ccc2OCCn2c(C)nc3cc(C(F)(F)F)c(-c4ccncc4C)c(C#N)c3c2=O)c2scc(C(=O)O)c2n1 [compound 901] | < 50 | 45.6 | – |
| N#Cc1cc2c(=O)n(C/C=C/c3ccc(Cl)cc3-c3cccc(C(=O)O)c3)cnc2cn1 [compound 41] | > 1000 | 3440 | – |
| Cc1nc2cc(OC(F)F)c(Cl)c(C#N)c2c(=O)n1CCOc1ccc(Cl)cc1-c1ccnc2c(C(=O)O)csc12 [compound 537] | < 50 | 46.6 | – |
| Cc1nc2cnc(N(C)C3CCN(CCC(F)(F)F)CC3)c(C#N)c2c(=O)n1CCOc1ccc(Cl)cc1-c1ccnc2c(C(=O)O)csc12 [compound 1360] | – | – | 16.8 |
| Cc1nc2c(c(C#N)cc3ccccc32)c(=O)n1CCOc1ccc(Cl)cc1-c1ccnc2c(C(=O)O)csc12 [compound 1946] | – | – | 44.7 |
| Cc1cc(-c2cc(Cl)ccc2OCCn2c(C)nc3nc(C(F)(F)F)c(C)nc3c2=O)c2scc(C(=O)O)c2n1 [compound 760] | < 50 | 6.44 | – |
| Cc1nc2c(F)c(CN(C)C)c(C(F)F)c(C#N)c2c(=O)n1CCOc1ccc(Cl)cc1-c1ccnc2c(C(=O)O)csc12 [compound 518] | < 50 | 16.4 | – |
| Cc1nc2cc(C(F)(F)F)cc(C#N)c2c(=O)n1CCOc1ccc(Cl)cc1-c1ccnc(-c2nnn[nH]2)c1 [compound 662] | 50 to 1000 | 144 | – |
| CNc1cc2c(=O)n(CCOc3ccc(Cl)cc3-c3cccc(C(=O)O)c3)c(C)nc2cn1 [compound 2006] | – | – | 611 |
| Cc1cc(-c2c(C(F)(F)F)cc3nc(C)n(CCOc4ccc(Cl)cc4-c4cc(C)nc5c(C(=O)O)csc45)c(=O)c3c2C#N)cc(C)n1 [compound 465] | < 50 | 15.1 | – |
| Cc1nc2cc(Cl)c(Cl)c(C#N)c2c(=O)n1C/C=C/c1ccc(Cl)cc1-c1ccnc2c(C(=O)O)csc12 [compound 256] | 50 to 1000 | 104 | – |
| Cc1nc2cc(C(F)(F)F)cc(C#N)c2c(=O)n1CCOc1cnc(C#N)nc1-c1ccnc2c(C(=O)O)csc12 [compound 455] | 50 to 1000 | 473 | – |
| CCC(F)(F)CN1CCC(N(C)c2ncc3nc(C)n(COCc4ccc(Cl)cc4-c4ccnc5c(C(=O)O)csc45)c(=O)c3c2C#N)CC1 [compound 1168] | < 50 | 13 | – |
| N#Cc1cc(C(F)(F)F)cc2ncn(CCOc3ccc(Cl)cc3-c3cccc(C(=O)O)c3)c(=O)c12 [compound 1994] | – | – | 41.8 |
| Cc1sc2c(-c3cc(Cl)ccc3OCCn3c(C)nc4cc(C(F)(F)F)c(N5CCN(C)CC5)c(C#N)c4c3=O)ccnc2c1C(=O)O [compound 1093] | 50 to 1000 | 58.6 | – |
| N#Cc1cncc2nc(C(F)F)n(CCOc3ccc(Cl)cc3-c3cccc(C(=O)O)c3)c(=O)c12 [compound 1983] | – | – | 82.6 |
